Measurements published in publication PMC7587356, “High-Throughput Screening for Inhibitors of the SARS-CoV-2 Protease Using a FRET-Biosensor” (Molecules, 2020).
Counter-ions that a name gives are not always drawn. Like-named read-outs stand apart in the source and are kept apart here.

Molecular target: SARS-CoV-2 3CLpro (Severe acute respiratory syndrome coronavirus 2, UniProt P0DTD1)
Assay: biochemical
Type: biochemical
Design: Replicate_1 / Replicate_2 / mean / mean (LOPAC_screen_w_protease): unit not given here
Settings: for inhibition at 5 µM: 4 h
[1] = LOPAC1280 primary screen with protease, 5 µM compound, mean of two replicates
[2] = LOPAC1280 primary screen with protease, 5 µM compound, replicate 1
[3] = LOPAC1280 primary screen with protease, 5 µM compound, replicate 2
[4] = sheet LOPAC_screen_w_protease, primary screen with protease, 5 µM, mean of two replicates, read-out: mean
[5] = sheet LOPAC_screen_w_protease, primary screen with protease, 5 µM, replicate 1, read-out: Replicate_1
[6] = sheet LOPAC_screen_w_protease, primary screen with protease, 5 µM, replicate 2, read-out: Replicate_2

SMILES: C[C@]12CCC(=O)C=C1CC[C@@H]1[C@@H]2[C@@H](O)C[C@@]2(C)[C@H]1CC[C@]2(O)C(=O)COC(=O)CCC(=O)[O-].[Na+] [Hydrocortisone 21-hemisuccinate sodium]
- mean (sheet LOPAC_screen_w_protease, LOPAC1280 at 5 µM, mean of two replicates): 1.066
- Replicate_1 (sheet LOPAC_screen_w_protease, LOPAC1280 at 5 µM, replicate 1): 1.635
- Replicate_2 (sheet LOPAC_screen_w_protease, LOPAC1280 at 5 µM, replicate 2): 0.4974

SMILES: Cl.O=C(CCCN1CCC2(CC1)C(=O)N(CCc1ccc(N=C=S)cc1)CN2c1ccccc1)c1ccc(F)cc1
- mean (sheet LOPAC_screen_w_protease, LOPAC1280 primary screen with protease, 5 µM compound, mean of the two replicates): 5.051
- Replicate_1 (sheet LOPAC_screen_w_protease, LOPAC1280 primary screen with protease, 5 µM compound, replicate 1): 5.654
- Replicate_2 (sheet LOPAC_screen_w_protease, LOPAC1280 primary screen with protease, 5 µM compound, replicate 2): 4.448

SMILES: N#CC(C#N)=Cc1ccc([N+](=O)[O-])c(O)c1 [Tyrphostin AG 126]
- mean (sheet LOPAC_screen_w_protease, primary screen with protease, mean of two replicates): 2.288
- Replicate_1 (sheet LOPAC_screen_w_protease, primary screen with protease, replicate 1): 2.273
- Replicate_2 (sheet LOPAC_screen_w_protease, primary screen with protease, replicate 2): 2.303

SMILES: O=C(O)[C@@H]1C[C@H](C(=O)O)N1 [cis-Azetidine-2,4-dicarboxylic acid]
- mean (LOPAC_screen_w_protease) [1]: 1.501
- Replicate_1 (LOPAC_screen_w_protease) [2]: 1.545
- Replicate_2 (LOPAC_screen_w_protease) [3]: 1.457

SMILES: N#C/C(=C\c1ccc(O)c(O)c1)C(=O)NCc1ccccc1 [Tyrphostin AG 490]
- inhibition at 5 µM (sheet LOPAC_screen_w_protease, primary screen with protease, compound at 5 µM, mean of two replicates, read-out: mean): 2.61%
- inhibition at 5 µM (sheet LOPAC_screen_w_protease, primary screen with protease, compound at 5 µM, replicate 1, read-out: Replicate_1): 3.18%
- inhibition at 5 µM (sheet LOPAC_screen_w_protease, primary screen with protease, compound at 5 µM, replicate 2, read-out: Replicate_2): 2.05%

SMILES: CC(=O)c1c(O)c(C)c(O)c(Cc2c(O)c3c(c(C(=O)/C=C/c4ccccc4)c2O)OC(C)(C)C=C3)c1O [Rottlerin]
- inhibition at 5 µM (read-out: Replicate_1): 4.21%
- inhibition at 5 µM (read-out: Replicate_2): 5.11%
- inhibition at 5 µM (read-out: mean): 4.66%

SMILES: CC(NCCc1ccc(O)cc1)C(O)c1ccc(O)cc1 (stereo not drawn) [Ritodrine hydrochloride]
- inhibition at 5 µM [4]: -0.392%
- inhibition at 5 µM [5]: -0.659%
- inhibition at 5 µM [6]: -0.126%

SMILES: CSc1ccc(C(=O)c2[nH]c(=O)[nH]c2C)cc1 [Enoximone]
- inhibition at 5 µM (read-out: Replicate_1 (LOPAC screen with protease)): 7.98%
- inhibition at 5 µM (read-out: Replicate_2 (LOPAC screen with protease)): 10%
- inhibition at 5 µM (read-out: mean (LOPAC screen with protease)): 9.01%

SMILES: CCCCCC(O)CCCC(=O)O.[Na] (stereo not drawn) [5-hydroxydecanoic acid sodium]
- mean (sheet LOPAC_screen_w_protease, primary screen with protease, 5 µM, mean of two replicates): 0.3617
- Replicate_1 (sheet LOPAC_screen_w_protease, primary screen with protease, 5 µM, replicate 1): 2.03
- Replicate_2 (sheet LOPAC_screen_w_protease, primary screen with protease, 5 µM, replicate 2): -1.306

SMILES: COC(=O)[C@@H]1[C@H]2C[C@H]3c4[nH]c5ccccc5c4CCN3C[C@@H]2CC[C@@H]1O [Yohimbine hydrochloride]
- inhibition at 5 µM [4]: 0.269%
- inhibition at 5 µM [5]: -0.997%
- inhibition at 5 µM [6]: 1.53%

SMILES: CN(C)CCC=C1c2ccccc2CCc2ccccc21 [Amitriptyline hydrochloride]
- inhibition at 5 µM (sheet LOPAC_screen_w_protease, LOPAC1280 primary screen at 5 µM, with protease, mean of the two replicates, read-out: mean): 0.72%
- inhibition at 5 µM (sheet LOPAC_screen_w_protease, LOPAC1280 primary screen at 5 µM, with protease, replicate 1, read-out: Replicate_1): 0.391%
- inhibition at 5 µM (sheet LOPAC_screen_w_protease, LOPAC1280 primary screen at 5 µM, with protease, replicate 2, read-out: Replicate_2): 1.05%

SMILES: NNc1nncc2ccccc12 [Hydralazine hydrochloride]
- inhibition at 5 µM (read-out: Replicate_1): 4.76%
- inhibition at 5 µM (read-out: Replicate_2): 1.31%
- inhibition at 5 µM (read-out: mean): 3.03%

SMILES: CC(C)NCC(O)COc1ccc(CCOCC2CC2)cc1 (stereo not drawn) [Betaxolol hydrochloride]
- inhibition at 5 µM (read-out: Replicate_1): 0.905%
- inhibition at 5 µM (read-out: Replicate_2): 3.87%
- inhibition at 5 µM (read-out: mean): 2.39%

SMILES: CC1=C(C)C(=O)C(CCCCC#CCCCC#CCO)=C(C)C1=O [AA-861]
- inhibition at 5 µM (sheet LOPAC_screen_w_protease, primary screen with protease, mean of two replicates, read-out: mean): 2.27%
- inhibition at 5 µM (sheet LOPAC_screen_w_protease, primary screen with protease, replicate 1, read-out: Replicate_1): 3.11%
- inhibition at 5 µM (sheet LOPAC_screen_w_protease, primary screen with protease, replicate 2, read-out: Replicate_2): 1.43%

SMILES: CCn1cnc2c(Nc3cccc(Cl)c3)nc(N[C@@H]3CCCC[C@@H]3N)nc21.Cl [CGP-74514A hydrochloride]
- mean (sheet LOPAC_screen_w_protease, LOPAC1280 primary screen at 5 µM, with protease, mean of the two replicates): 0.7839
- Replicate_1 (sheet LOPAC_screen_w_protease, LOPAC1280 primary screen at 5 µM, with protease, replicate 1): 2.043
- Replicate_2 (sheet LOPAC_screen_w_protease, LOPAC1280 primary screen at 5 µM, with protease, replicate 2): -0.4753

SMILES: CC[C@H](C)C(=O)O[C@H]1CCC=C2C=C[C@H](C)[C@H](CC[C@@H]3C[C@@H](O)CC(=O)O3)[C@H]21 [Mevastatin]
- inhibition at 5 µM (sheet LOPAC_screen_w_protease, LOPAC1280 primary screen with protease, 5 µM compound, mean of the two replicates, read-out: mean): 4.58%
- inhibition at 5 µM (sheet LOPAC_screen_w_protease, LOPAC1280 primary screen with protease, 5 µM compound, replicate 1, read-out: Replicate_1): 3.98%
- inhibition at 5 µM (sheet LOPAC_screen_w_protease, LOPAC1280 primary screen with protease, 5 µM compound, replicate 2, read-out: Replicate_2): 5.17%

SMILES: CCCn1c(C)c(C(=O)c2cccc3ccccc23)c2ccccc21 [JWH-015]
- mean (LOPAC_screen_w_protease) [1]: 1.386
- Replicate_1 (LOPAC_screen_w_protease) [2]: 1.748
- Replicate_2 (LOPAC_screen_w_protease) [3]: 1.024
